Five compounds from ChEMBL document CHEMBL1122382, “An evaluation of certain chain-extended analogues of 9-beta-D-arabinofuranosyladenine for antiviral and cardiovascular activity” (1983) can be followed below.

Assay [1] has as its system Human alphaherpesvirus 1. The experiment in a line: Virus rating (VR) which is the weighted measurement of in vitro antiviral activity, based on the inhibition of virus-induced cytopathogenic effects. VR > 1, active. Type of assay: functional. For orientation: Protection from cytopathic effect is a common read-out in antiviral testing.
Assay [2] has as its system Human alphaherpesvirus 1. The experiment in a line: Antiviral activity against herpes simplex virus type 1 (strain 377). The note with it: read-out: ID50 (the source's name). Type of assay: functional.
For assay [3], the system named is Canis familiaris. Briefly: Compound was evaluated for the cardiovascular activity, expressed as maximum percent response achieved with standard (administered intravenously at a dose of 0.10 mg/kg) at a dose of 1.0 mg/kg of compound. The class given is functional, Canis lupus familiaris, Heart.
Assay [4] relates to Human alphaherpesvirus 1. The experiment in a line: Compound was evaluated for virus rating (VR) which is the weighted measurement of in vitro antiviral activity, based on the inhibition of HSV-1 virus-induced cytopathogenic effects. VR = 0.5-0.9 indicates marginal activity. The class given is functional.
Assay [5] in a line: Compound was evaluated for in vitro therapeutic index ratio of the ID50 for inhibition of cellular DNA and protein synthesis to the ID50 for inhibition of virus replication. The class given is functional.
In assay [6] the test system is Human alphaherpesvirus 1. The experiment in a line: Antiviral activity against herpes simplex virus type 1 (strain HF). Type of assay: functional. The note with it: read-out: ID50 (the source's name).
The nature of assay [7]: Compound was evaluated for antiviral activity of the compound, expressed as ID50 for the inhibition of cellular DNA and protein synthesis in wild-type cells. Type of assay: functional. As to conditions: read-out: ID50 (the source's name).
Assay [8] deals with Human alphaherpesvirus 1. The experiment in a line: Virus rating (VR) which is the weighted measurement of in vitro antiviral activity, based on the inhibition of HSV-1 virus-induced cytopathogenic effects. VR > 1, active. Type of assay: functional.
Assay [9] deals with Ara-A. The experiment in a line: Compound was evaluated for antiviral activity of the compound, expressed as ID50 for the inhibition of cellular DNA and protein synthesis in ara-A resistant cells. Type of assay: functional. The note with it: Homo sapiens; read-out: ID50 (the source's name).
In assay [10] the test system is Human alphaherpesvirus 1. Briefly: Compound was evaluated for virus rating (VR) which is the weighted measurement of in vitro antiviral activity, based on the inhibition of HSV-1 virus-induced cytopathogenic effects. VR > 1, active. The class given is functional.
In assay [11] the test system is Canis familiaris. The experiment in a line: Compound was evaluated for the cardiovascular activity, expressed as maximum % response achieved with standard (administered intravenously at a dose of 0.10 mg/kg) at a dose of 1.0 mg/kg of the compound. Type of assay: functional, Canis lupus familiaris, Heart.
Assay [12] deals with Ara-A. Briefly: Compound was evaluated for antiviral activity expressed as ID50 for the inhibition of cellular DNA and protein synthesis in ara-A resistant cells. The note with it: Homo sapiens; read-out: ID50 (the source's name). The class given is functional.
Assay [13] is described as follows: Compound was evaluated for antiviral activity expressed as ID50 for the inhibition of cellular DNA and protein synthesis in wild-type cells. Type of assay: functional. As to conditions: read-out: ID50 (the source's name).

For the compound `NC(=O)CC[C@H]1OC(n2cnc3c(N)ncnc32)[C@@H](O)[C@@H]1O` (some centres undefined), the VR with Human alphaherpesvirus 1 [1] amounted to 1.6. Also, the IC50 with Human alphaherpesvirus 1 [2] stood at 574 µM. Also, the Response with Canis familiaris [3] is 10%.

For the compound `Nc1ncnc2c1ncn2C1O[C@H](CCC(=O)O)[C@@H](O)[C@@H]1O` (some centres undefined), in the assay on Human alphaherpesvirus 1 [4], the VR was 0.3.

As for `Nc1ncnc2c1ncn2C1O[C@H](CCCO)[C@@H](O)[C@@H]1O` (some centres undefined), the IC50 in the assay with Human alphaherpesvirus 1 [2] came to 643 µM; in the assay with Human alphaherpesvirus 1 [6], 525 µM; in [7], 1.88 mM; with Ara-A [9], 1.51 mM. Besides, in assay [5], the Ratio stood at 2.1. In the assay with Human alphaherpesvirus 1 [8], this compound gave a VR of 1.5.

With `CCOC(=O)CC[C@H]1OC(n2cnc3c(N)ncnc32)[C@@H](O)[C@@H]1O` (some centres undefined), in the assay on Human alphaherpesvirus 1 [10], the VR turned out to be 1. Further, the IC50 in the assay on Human alphaherpesvirus 1 [2] turned out to be 729 µM. The same compound returned a Response in the assay on Canis familiaris [11] of 39%.

In the case of `Nc1ncnc2c1ncn2[C@@H]1O[C@H](CO)[C@@H](O)[C@H]1O` [ADENOSINE], in the assay on Human alphaherpesvirus 1 [1], the VR was 2.5. Further, the IC50 amounted to 22 µM with Human alphaherpesvirus 1 [2], 242 µM in the assay with Ara-A [12], 2400 nM in assay [13] and 42 µM with Human alphaherpesvirus 1 [6]. Also, the Ratio in assay [5] came to 3.1.
